# Several values for one entry are separate records, joined by “and”; a condition that tells them apart may be missing. Identical values can stand only once.
# Key:
# [1] = tested on: nicotine-induced antinociception (tail-flick); test: Block of nicotine-induced antinociception, tail-flick test; assay type: in vivo, mice; details: for ED50: Mus musculus, read-out: AD50 Tail-flick; for potency relative to 2 in the tail-flick assay: mouse, in vivo
# [2] = tested on: nicotine-induced hypothermia; test: Block of nicotine-induced hypothermia; design: species or system mice; details: mouse, in vivo
# hNET = hNET (Homo sapiens, UniProt P23975); test: [3H]norepinephrine uptake inhibition in HEK293 cells; assay type: cell-based; details: for potency relative to 2 as NE uptake inhibitor: better than 2
# [3] = tested on: nicotine-induced antinociception (hot-plate); test: Block of nicotine-induced antinociception, hot-plate test; design: species or system mice; details: mouse, in vivo
# hSERT = hSERT (Homo sapiens, UniProt P31645); assay type: cell-based
# [4] = cited from earlier work
# nicotine-induced CPP = test: Block of development of nicotine conditioned place preference; design: species or system mice; details: mouse, in vivo
# locomotor activity = details: cited from earlier work
# [5] = tested on: CB-1 cannabinoid receptor; details: cited from earlier work
# α3β4*-nAChR = α3β4*-nAChR (Homo sapiens, UniProt P30926+P32297); test: 86Rb+ efflux assay, SH-SY5Y cells; assay type: cell-based
# [6] = tested on: nicotine-induced locomotor effect; test: Block of nicotine effect on locomotor activity; design: species or system mice; details: mouse, in vivo
# Chain of hNET (P23975 whole entry): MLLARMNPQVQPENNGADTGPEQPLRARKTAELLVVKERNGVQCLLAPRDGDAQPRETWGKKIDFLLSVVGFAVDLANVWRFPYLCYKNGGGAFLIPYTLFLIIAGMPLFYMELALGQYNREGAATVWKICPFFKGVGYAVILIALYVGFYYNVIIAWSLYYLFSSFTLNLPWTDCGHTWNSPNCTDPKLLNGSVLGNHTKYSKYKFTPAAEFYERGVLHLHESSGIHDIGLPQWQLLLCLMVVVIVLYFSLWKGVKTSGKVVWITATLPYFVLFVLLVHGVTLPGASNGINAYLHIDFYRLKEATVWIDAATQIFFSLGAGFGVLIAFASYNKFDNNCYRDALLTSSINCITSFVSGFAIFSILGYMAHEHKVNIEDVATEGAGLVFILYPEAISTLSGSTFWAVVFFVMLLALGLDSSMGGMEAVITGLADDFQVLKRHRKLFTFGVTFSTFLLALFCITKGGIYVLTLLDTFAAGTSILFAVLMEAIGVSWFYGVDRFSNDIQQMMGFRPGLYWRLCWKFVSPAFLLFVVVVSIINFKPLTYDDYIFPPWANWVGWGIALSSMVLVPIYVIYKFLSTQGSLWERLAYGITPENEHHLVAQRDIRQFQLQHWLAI
# Chain of α3β4*-nAChR (P32297 32-505): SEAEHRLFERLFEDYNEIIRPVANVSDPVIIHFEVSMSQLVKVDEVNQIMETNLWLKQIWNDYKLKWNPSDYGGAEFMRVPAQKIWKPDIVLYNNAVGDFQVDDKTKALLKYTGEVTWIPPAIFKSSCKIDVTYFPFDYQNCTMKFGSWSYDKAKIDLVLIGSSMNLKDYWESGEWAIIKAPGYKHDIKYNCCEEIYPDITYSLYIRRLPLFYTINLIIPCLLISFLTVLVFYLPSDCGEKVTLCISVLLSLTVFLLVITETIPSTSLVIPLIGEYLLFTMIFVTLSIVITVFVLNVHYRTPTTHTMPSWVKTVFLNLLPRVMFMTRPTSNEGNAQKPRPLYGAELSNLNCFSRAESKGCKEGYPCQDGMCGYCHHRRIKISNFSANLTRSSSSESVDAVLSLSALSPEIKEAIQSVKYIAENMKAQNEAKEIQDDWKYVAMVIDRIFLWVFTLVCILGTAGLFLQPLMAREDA
# Chain of α3β4*-nAChR (P30926 22-498): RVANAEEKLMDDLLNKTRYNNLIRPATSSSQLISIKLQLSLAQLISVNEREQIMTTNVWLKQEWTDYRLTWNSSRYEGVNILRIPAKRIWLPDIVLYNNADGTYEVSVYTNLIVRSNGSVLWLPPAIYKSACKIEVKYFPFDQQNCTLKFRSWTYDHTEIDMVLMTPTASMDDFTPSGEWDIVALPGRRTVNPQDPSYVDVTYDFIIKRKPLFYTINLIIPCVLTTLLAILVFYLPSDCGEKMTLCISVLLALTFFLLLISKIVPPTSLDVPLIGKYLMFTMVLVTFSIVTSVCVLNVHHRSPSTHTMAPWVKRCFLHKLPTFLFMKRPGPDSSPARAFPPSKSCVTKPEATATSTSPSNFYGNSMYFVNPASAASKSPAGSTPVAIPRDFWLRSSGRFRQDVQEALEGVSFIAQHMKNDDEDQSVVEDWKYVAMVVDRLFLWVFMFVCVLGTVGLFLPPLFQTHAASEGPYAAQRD
# Chain of hSERT (P31645 whole entry): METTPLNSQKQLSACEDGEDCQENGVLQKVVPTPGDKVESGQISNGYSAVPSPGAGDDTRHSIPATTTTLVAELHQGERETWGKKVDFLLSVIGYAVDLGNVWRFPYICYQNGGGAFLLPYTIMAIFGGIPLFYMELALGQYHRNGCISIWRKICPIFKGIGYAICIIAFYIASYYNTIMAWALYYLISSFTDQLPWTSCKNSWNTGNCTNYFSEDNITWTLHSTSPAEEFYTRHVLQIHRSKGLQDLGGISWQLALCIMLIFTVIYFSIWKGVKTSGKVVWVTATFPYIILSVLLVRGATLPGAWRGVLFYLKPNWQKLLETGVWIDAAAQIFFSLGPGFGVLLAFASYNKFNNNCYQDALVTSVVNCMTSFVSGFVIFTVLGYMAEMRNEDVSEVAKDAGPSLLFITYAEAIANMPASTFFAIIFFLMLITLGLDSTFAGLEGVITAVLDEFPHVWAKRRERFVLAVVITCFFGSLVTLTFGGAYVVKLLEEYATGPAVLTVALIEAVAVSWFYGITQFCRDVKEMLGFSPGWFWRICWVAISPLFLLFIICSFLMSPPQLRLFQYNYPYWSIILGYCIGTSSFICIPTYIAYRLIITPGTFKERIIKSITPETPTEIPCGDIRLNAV
structure (smiles),measurement,setting,value
"CC(NC(C)(C)C)C(=O)c1cccc(Cl)c1 (centres unmarked) [Compound 2, bupropion, reference compound]",ED50,[1],1.2 mg/kg
"Cc1ccc([C@H]2C[C@@H]3CC[C@H]([C@H]2C(=O)OC(C)C)N3C)cc1 [Compound 4a, 3β-(4-Methylphenyl)tropane-2β-carboxylic acid isopropyl ester]",ED50,[1],0.015 mg/kg
Cc1ccc([C@H]2C[C@@H]3CC[C@H]([C@H]2C(=O)OC2CCC2)N3C)cc1 [Compound 4b],ED50,[1],0.28 mg/kg
"CCc1cc([C@H]2[C@@H](c3ccc(C)cc3)C[C@@H]3CC[C@H]2N3C)on1 [Compound 4c, 3β-(4-methylphenyl)-2β-(3′-ethylisoxazol-5′-yl)tropane]",potency relative to 2 in the hypothermia (body temperature) test,[2],marginally more potent
same,ED50,[1],0.008 mg/kg
same,potency relative to 2 in the tail-flick assay,[1],150 fold
same,potency relative to 2 as NE uptake inhibitor,hNET,~ 170 fold
same,potency relative to 2 in the hot-plate assay,[3],9 fold
same,potency relative to 2 as 5HT uptake inhibitor,hSERT,no less than 5 fold
Cc1ccc([C@H]2C[C@@H]3CC[C@H]([C@H]2c2cc(-c4ccc(Cl)cc4)no2)N3C)cc1 [Compound 4d],brain levels in in vivo binding studies,[4],appreciable brain levels were achieved
same,potency relative to 2 in the CPP assay,nicotine-induced CPP,27 fold
same,ED50,[1],> 20 mg/kg
same,locomotor activity in rats,locomotor activity,did not show locomotor activity
same,modulation of the CB-1 cannabinoid receptor,[5],positive allosteric modulator
COc1ccc(-c2cc([C@H]3[C@@H](c4ccc(Cl)cc4)C[C@@H]4CC[C@H]3N4C)on2)cc1 [Compound 4e],ED50,[1],0.018 mg/kg
same,preference for functional inhibition of α3β4*- over α4β4-nAChR,α3β4*-nAChR,> 56 fold
"COC(=O)[C@H]1[C@@H](c2ccc(Cl)c(C)c2)C[C@@H]2CC[C@H]1N2C [Compound 4g, 3β-(4-chlorophenyl-3-methyl)tropane-2β-carboxylic acid methyl ester]",potency relative to 2 in the hypothermia (body temperature) test,[2],65 fold
same,ED50,[1],0.21 mg/kg
same,potency relative to 2 in the tail-flick assay,[1],6 fold
same,potency relative to 2 as NE uptake inhibitor,hNET,~ 2000 fold
same,potency relative to 2 in the hot-plate assay,[3],40 fold
same,potency relative to 2 in the locomotor test,[6],44 fold
"COC(=O)[C@H]1[C@@H](c2ccc(Cl)c(C)c2)C[C@@H]2CC[C@H]1N2 [Compound 4h, 3β-(4-chloro-3-methylphenyl)nortropane-2β-carboxylic acid methyl ester]",ED50,[1],0.003 mg/kg
"Cc1cc([C@H]2[C@@H](c3ccc(Cl)c(C)c3)C[C@@H]3CC[C@H]2N3C)on1 [Compound 4i, 3β-(4-chloro-3-methylphenyl)-2β-(3′-methylisoxazol-5′-yl)tropane]",ED50,[1],0.009 mg/kg
same,preference for functional inhibition of α3β4*- over α4β2-nAChR,α3β4*-nAChR,11 fold and 10–13 fold
Cc1cc([C@H]2C[C@@H]3CC[C@H]([C@H]2c2cc(-c4ccccc4)no2)N3C)ccc1Cl [Compound 4j],ED50,[1],2.5 mg/kg
same,preference for NE over DA uptake inhibition,hNET,comparable
same,preference for functional inhibition of α3β4*- over α4β2-nAChR,α3β4*-nAChR,10–13 fold
"COC(=O)[C@@H]1[C@H]2CC[C@@H](C[C@H]1c1ccc(Cl)c(C)c1)N2C [Compound 4k, 3α-(4-Chloro-3-methylphenyl)tropane-2β-carboxylic acid Methyl Ester]",ED50,[1],0.026 mg/kg
